# In patent US9636314B2, “Medicament for treatment of non-insulin dependent diabetes mellitus, hypertension and/or metabolic syndrome” (Stevia Limited, priority 2001, dated 2017):
# Entries after “also recorded” stand apart in the source; their conditions may differ.
# Experiments:
# GK rats [1] = experiment: i.v. glucose tolerance test with stevioside in GK rats (plasma glucose and insulin); type: in vivo, rat; conditions: 2.0 g glucose/kg + 0.2 g stevioside/kg i.v.
# Procedure: In the following examples, the type II diabetic Goto-Kakizaki (GK) rats originated from Takeda Chemical Ind., Tokyo, Japan and were bred locally. As examples of the effects of a compound including the chemical formulas II, stevioside was tested on normal Wistar rats and on GK rats. 2.0 g glucose/kg body weight and 0.2 g stevioside/kg body weight were dissolved in 0.9% saline and infused intravenously. The plasma glucose and insulin levels were measured over a period of 2 hours. The results are shown in FIGS. 2a, 2b, 3a and 3b, were the O-O series (n=6 for Wistar and n=14 for GK) illustrate glucose infused alone and the (2)-(2) series (n=6 for Wistar and n=12 for GK) illustrate the combined glucose and stevioside infusion. Data are given as mean±SEM.
# isolated mouse islets = experiment: glucose-stimulated insulin secretion from isolated mouse islets; type: cell-based; conditions: for maximal stimulatory dose / glucose-stimulated insulin secretion: NMRI mouse islets; for glucose-stimulated insulin secretion: 16.7 mmol/l, 10^−9-10^−3 mol/l
# Procedure: Islet from 6-10 NMRI mice were isolated and incubated in the presence of 16.7 mmol/l and 10^−9-10^−3 mol/l stevioside or 10^−9-10^−3 mol/l steviol. The results of these tests are illustrated in FIGS. 4a and 4b where each column represents mean±SEM from 24 incubations of single islets. Black bars in FIG. 4a indicate that stevioside is present and hatched bars indicate that stevioside is absent. Black bars in FIG. 4b indicate that steviol is present and hatched bars indicate that steviol is absent. The influence of the maximal stimulatory doses of 10^−3 mol/l stevioside and 10^−6 mol/l steviol was studied in NMRI mouse islets over a range between 0 and 16.7 mmol/l glucose. […] Black bars in FIG. 7a indicate that stevioside is present and hatched bars indicate that stevioside is absent. Black bars in FIG. 7b indicate that steviol is present and hatched bars indicate that steviol is absent.
# GK rats [2] = experiment: plasma glucagon during glucose tolerance test in GK rats; type: in vivo, rat; conditions: stevioside 0.2 g/kg i.v. bolus, glucose 2.0 g/kg
# Procedure: During a glucose tolerance test, an intravenous bolus of stevioside of 0.2 g/kg body weight was injected in GK rats (the (2)-(2) serie (n=6)). GK rats receiving 0.9% saline intravenously served as controls (the O-O serie (n=6)). Glucose 2.0 g/kg body weight was administered as a bolus at timepoint 0 min. The plasma glucagon responses are shown as mean±SEM in FIGS. 5a (control) and 5b (GK). The plasma glucagon was suppressed in the stevioside treated GK rat.
# GK rats [3] = experiment: blood pressure during 6 weeks treatment of GK rats with stevioside; type: in vivo, rat; conditions: 0.025 g/kg/24 h in drinking water, detectable after 2 weeks, then stable
# Procedure: GK rats were treated with stevioside 0.025 g/kg body weight/24 h for 6 weeks. Stevioside was administered in the drinking water. GK rats receiving drinking water with 0.111 g D-glucose/kg body weight/24 h served as controls. Systolic (FIG. 6a, control: O-O series, stevioside-treated: (2)-(2) series) and diastolic (FIG. 6b, control: O-O series, stevioside-treated: (2)-(2) series) blood pressures were measured on the tail.
# [4] = tested on: type II diabetic patients; experiment: acute paired cross-over test meal study with oral stevioside; type: in vivo, human; conditions: 1 g stevioside orally with standard meal
# Description: Twelve type II diabetic patients (4 female/8 males) with a mean age of 65.8±1.6 years, a diabetes duration of 6.0±1.3 years, a mean body mass index of 28.5±1.0, and a mean glycated hemoglobin HbA1c of 7.4±0.4 percent were included in the study. The experiment was an acute, paired, cross-over study in which two test meals were served during the experiments (A: Standard meal supplemented with 1 g of stevioside given orally; B: Standard meal given together with 1 g of gelatine (placebo) given orally. The total energy content of the test meals was 1725 kJ (protein 16 E %, fat 30 E %, carbohydrate 54 E %). Blood samples were drawn from an antecubital vein 30 minutes before and 240 minutes after ingestion of the test meal. The arterial blood pressure was continuously monitored during the experiment. Students paired t-test was used for comparing the effects of stevioside with placebo on the parameters measured. Data are given as mean±SEM.
# GK-rats = experiment: four-week test diets (stevioside and/or soy) in Goto-Kakizaki rats with glucose tolerance test; type: in vivo, rat; conditions: 4 weeks, p<0.05
# Procedure: Four test diets (A: Standard carbohydrate rich laboratory animal diet (Altromin); n=12 (Alt). B: Altromin supplemented with stevioside (Altromin+Stevioside); n=12; (Alt+Ste). C: Soy plus 20% Altromin; n=12; (Soy). D: Soy plus 20% Altromin plus stevioside; n=12; (Soy+Ste)) were administered for four weeks to four groups of adult rats. Each experimental group consisted of twelve female Goto-Kakizaki wish an age of 9 weeks. The rats received the stevioside (0.025 g/kg body weight/day) with the drinking water. […] Plasma concentrations of glucose, insulin, and glucagon were measured during the glucose tolerance test. Immediately before the glucose tolerance test fasting levels of triglycerides and cholesterol were determined. Concomitantly, the systolic blood pressure was measured using a tail cuff. (Plasma glucose was measured using MPR 3, 166 391, Glucose/GOD-PAP Method from Boehringer Mannheim) (Plasma insulin was measured using Sensitive Rat Insulin RIA, Cat #SRI-13K from Linco) (Plasma glucagon was measured using Glucagon RIA. Cat #GL-32K from Linco) (Blood pressure was measured using TSE Non-Invasive Blood Pressure Monitoring System from Technical Scientific Equipment GmbK) (Plasma cholesterol was measured GOD-PAP from Roche and triglycerides was measured using GHOD-PAP from Roche)
# [5] = stevioside infusion at normal blood glucose; type: in vivo; conditions: bolus or constant intravenous infusion
# rats [6] = experiment: intravenous administration to rats (earlier work of the inventors); type: in vivo, rat; conditions: i.v.
# [7] = rats; cited from earlier work
# [8] = isolated perfused rat liver; cited from earlier work
# [9] = six in vitro and one in vivo mutagenicity assays; cited from earlier work
# F344 rats = conditions: cited from earlier work
# hamsters [10] = conditions: doses as high as 2.5 g/kg body weight/day; cited from earlier work
# [11] = tested on: isolated normal pancreatic rat islets; conditions: 7 mmol/l D-glucose; stevioside 1.0 mmol/l; cited from earlier work
# [12] = tested on: spontaneously hypertensive rats; conditions: cited from earlier work
# [13] = tested on: Salmonella typhirmurium strains; conditions: Salmonella typhimurium TA 98 and TA 100; cited from earlier work
# mice = conditions: mouse, in vivo; cited from earlier work
# rats [14] = conditions: rat, in vivo; cited from earlier work
# hamsters [15] = conditions: cited from earlier work
compound,measurement,setting,value
C=C1C[C@@]23CC[C@H]4[C@@](C)(CCC[C@@]4(C)C(=O)O[C@@H]4O[C@H](CO)[C@@H](O)[C@H](O)[C@H]4O)[C@@H]2CC[C@]1(O[C@@H]1O[C@H](CO)[C@@H](O)[C@H](O)[C@H]1O[C@@H]1O[C@H](CO)[C@@H](O)[C@H](O)[C@H]1O)C3 [stevioside],time at which a significant decrease of plasma glucose was observed,GK rats [1],30 min
same,blood glucose response to intravenous glucose,GK rats [1]; 2 hours,inhibited blood glucose responses; also recorded: diminished glucose response
same,insulin response,GK rats [1]; compared to the Wistar rat,pronounced increase in the insulin response
same,maximal stimulatory dose,isolated mouse islets,10^−3 mol/l
same,glucose-stimulated insulin secretion,isolated mouse islets,capable of potentiating glucose-stimulated insulin secretion
same,plasma glucagon,GK rats [2],suppressed
same,"decrease in the blood pressure (systolic and diastolic, tail)",GK rats [3],10-15%
same,reduction of the postprandial blood glucose response compared to placebo,"[4]; mean±SEM, p<0.004",18±5%
same,absolute IAUC of postprandial blood glucose,"[4]; mean±SEM, p<0.02 vs placebo",522±64 mmol/l×240 min
same,postprandial glucagon like peptide-1 (GLP-1) levels,"[4]; mean±SEM, p<0.045 vs placebo",1529±296
same,postprandial glucagon levels,"[4]; mean±SEM, p=0.02 vs placebo",281±33
same,insulin response (IAUC),"[4]; p=0.09, not statistically significant",tended to stimulate the insulin response
same,"suppression of the systolic blood pressure (Δ), stevioside in combination with Altromin",GK-rats,−28 mmHg
same,"suppression of the systolic blood pressure (Δ), stevioside in combination with soy",GK-rats,−21 mmHg
same,hypoglycemia,[5],did not cause any hypoglycemia
same,effect when administered intravenously to rats,rats [6],"anti-hyperglycemic, glucagonostatic and insulinotropic effect"
same,route of excretion,[7],excreted by the urine
same,metabolism,[8],not metabolised
same,mutagenicity,[9],not mutagenic
same,carcinogenicity,F344 rats,not carcinogenic
same,effect on growth or reproduction,hamsters [10],no effect on growth or reproduction
same,insulin output,[11],significant increase in insulin output
same,fall in the systolic blood pressure,[12]; 200 mg/kg intravenously (maximum hypotensive effect),only small
same,heart rate,[12]; intravenous stevioside,Neither the heart rate nor the plasma catecholamines were significantly changed
same,plasma catecholamines,[12]; intravenous stevioside,Neither the heart rate nor the plasma catecholamines were significantly changed
same,mutagenic effect,[13],no mutagenic effect
C=C1C[C@@]23CC[C@H]4[C@@](C)(CCC[C@@]4(C)C(=O)O)[C@@H]2CC[C@]1(O)C3 [steviol],stimulation of insulin secretion compared with stevioside,isolated mouse islets,to a greater extent
same,maximal stimulatory dose,isolated mouse islets,10^−6 mol/l
same,glucose-stimulated insulin secretion,isolated mouse islets,capable of potentiating glucose-stimulated insulin secretion
same,effect when administered intravenously to rats,rats [6],"anti-hyperglycemic, glucagonostatic and insulinotropic effect"
same,mutagenicity,[9],dose-related positive responses in some mutagenicity test
same,LD50,mice,higher than 15 g/kg body weight
same,LD50,rats [14],higher than 15 g/kg body weight
same,LD50,"hamsters [15]; hamster, in vivo",5-6 g/kg body weight
same,finding that accompanied lethality,"hamsters [15]; hamsters, correlated to increases in blood urea nitrogen and creatinine",degeneration of the proximal tubular cells
same,mutagenic effect,[13],no mutagenic effect
